Blank lines part the entries; values can stand above or below the molecule they belong to.
Assays:
Type in all cases: cell-based, mouse
[1] = system: pGL3(4X48) Sox9 responsive reporter gene; assay: pGL3(4X48) luciferase reporter gene activity in transiently transfected primary limb mesenchymal cultures; details: for normalized RLU (pGL3(4X48) reporter gene activity): RLU values normalized to control reporter activity
Text: (§1) To increase reporter gene sensitivity, the Sox9 responsive reporter gene from 4X48-p89 luciferase (14) was subcloned into pGL3-basic (Promega). A fragment containing the reiterated (4 X 48) Sox9 binding sequence upstream of the mouse col II minimal promoter (−89 to +13) was liberated from 4X48-p89 plasmid by digestion with Bam HI and Hind III. This fragment was subcloned into the Bgl II and […] sites of pGL3-basic (Promega) to generate pGL3(4X48). To generate an EGFP-based col II reporter, the luciferase gene within pGL3(4X48) was replaced with EGFP-N1 (Clontech). For expression of genes in primary cultures a modified version of pSG5 (Stratagene), pSG5HS, was used which contains two additional restriction endonuclease sites, Hind III and Spe I. The myogenin promoter-luciferase construct was made by subcloning a 1.14 kB fragment of the myogenin promoter (containing the region from pGZ1092) from plasmid pGBB into pGL3-basic. The cardiac actin promoter-luciferase vector was generated by subcloning a fragment of the cardiac actin promoter from −440 to +6 into pGL3-basic.
(§2) Limb mesenchymal cells were harvested from embryonic age 11.25-11.75 mouse embryos as previously described (19). To establish proximal or distal cultures the proximal half of each limb bud was separated from the distal half, and each pool of limb fragments was processed separately. The cells were resuspended at a density of 1.5−2×10^7 cells/ml. For transfection purposes, cells were mixed with a DNA/FuGene6 mixture in a 2:1 ratio. FuGene6-DNA mixtures were prepared according to the manufacturer's instructions (Roche Biomolecular). Briefly, 1 μg of reporter, 1 μg of expression vector and 0.05 μg of pRLSV40 (Promega) were mixed for a total of ˜2 μg DNA in 100 μl of media and FuGene6. Fifty microlitres of the DNA mixture was transferred into a sterile 1.5 ml eppendorf tube, followed by 100 μl of cells. Cells were gently triturated and 10 μl was used to seed a single well of a 24-well culture dish. After 1.5 hrs in a humidified CO2 incubator, 1 ml of media containing compounds of interest was added to each well and was subsequently replaced 24 hrs following transfection.
Analysis of reporter gene activity using the Dual Luciferase Assay System was done following the manufacturer's instructions (Promega). Briefly, ˜48 hrs post-transfection, cells were washed once with PBS and lysed in 100 μl of Passive Lysis Buffer for 20 min. Firefly and renilla luciferase activities were determined using 40 μl of lysate in a 96-well plate reading luminometer (Molecular Devices).

[2] = system: pGL3-4X48-EGFP reporter (Sox9 activity); assay: pGL3(4X48)-EGFP reporter in primary limb mesenchymal cultures; details: 10 ng/ml, 64 hours post-transfection, vs untreated control cultures
Text: as §1
Limb mesenchymal cells were harvested from embryonic age 11.25-11.75 mouse embryos as previously described (19). To establish proximal or distal cultures the proximal half of each limb bud was separated from the distal half, and each pool of limb fragments was processed separately. […]

limb mesenchymal cells = assay: Alcian blue staining of cartilage nodules in primary limb mesenchymal cultures; details: 10 ng/ml, 2 and 4 days, vs untreated cultures
Protocol: as §2

normalized RLU (pGL3(4X48) reporter gene activity) ([1]; co-transfected expression construct): 0.5
Molecule: Wnt3a

normalized RLU (pGL3(4X48) reporter gene activity) ([1]; protein added at 10 ng/ml): 4.2
increase in reporter gene activity ([1]; treatment of reporter gene-transfected cells, 10 ng/ml (FIG. 3H)): ~4.5 fold
Molecule: BMP-4: bone morphogenetic protein added to cultures at 10 ng/ml
number of EGFP-expressing (fluorescing) cells [2]: enhanced
cartilage nodule number (alcian blue) (limb mesenchymal cells): dramatic increase in nodule number

normalized RLU (pGL3(4X48) reporter gene activity) ([1]; protein added at 100 ng/ml): 0.3
B1: Noggin: BMP pathway protein added at 100 ng/ml (protein, UniProt Q13253 28-232, looked up)
Noggin: QHYLHIRPAPSDNLPLVDLIEHPDPIFDPKEKDLNETLLRSLLGGHYDPGFMATSPPEDRPGGGGGAAGGAEDLAELDQLLRQRPSGAMPSEIKGLEFSEGLAQGKKQRLSKKLRRKLQMWLWSQTFCPVLYAWNDLGSRFWPRYVKVGSCFSKRSCSVPEGMVCKPSKSVHLTVLRWRCQRRGGQRCGWIPIQYPIISECKCSC

Source: patent US20020061514A1, “Assay for identifying modulators of chondrogenesis” (priority 2000, published 2002)
